These results are taken from a melting point compilation (Tetko et al.).

With `N#Cc1c(F)cccc1OC(F)F`, the melting point (as a rule, the temperature of the solid-liquid transition) was 29 to 31 °C. Compound `CSc1cc(C(=O)O)ccc1F` displayed a melting point of 189 to 191 °C. On to `Cc1sc2[nH]c(CCC(=O)O)nc(=O)c2c1C`, for which the melting point was in the range of 249 to 251 °C.

`O=C(O)C1(NS(=O)(=O)c2cccc(F)c2)CCCCC1` registered a melting point of 213 to 215 °C. `Nc1nnc(Cc2cccc(F)c2)o1` registered a melting point of 146 to 148 °C.

The compound `COc1ccc(C(N)=NO)cc1OC` returned a melting point of 164 to 166 °C. With `O=C(O)c1ccc(Br)cc1-n1cncn1`, the melting point was in the range of 293 to 295 °C. For the compound `CC1CC(C)CN(S(=O)(=O)c2ccc(C(=O)O)cc2)C1` (configuration not stated), the melting point lay in the range of 275 to 277 °C. `NS(=O)(=O)c1cc(Br)ccc1Cl`: the melting point lay in the range of 179 to 181 °C. The compound `CC(C(N)=NO)n1ccnc1` (configuration not stated) displayed a melting point of 151 to 153 °C. As to `N#Cc1cc(C(N)=O)c[nH]1`, the melting point was 245 to 247 °C. For `O=C(O)CC(O)(c1nccn1Cc1ccccc1)C(F)(F)F` (configuration not stated), the melting point fell in the range of 152 to 154 °C. For the compound `Nc1nc2c(s1)CN(Cc1ccccc1)CC2`, the melting point was 95 to 98 °C.

Consider `COCc1c(C(=O)O)oc2ccccc12`, for which the melting point lay in the range of 119 to 121 °C. In turn, `O=C(O)c1cc(OC(F)F)cc(OC(F)F)c1` yielded a melting point of 79 to 81 °C. For `Brc1ccc2c(c1)CCCCN2`, the melting point was 52 to 54 °C. In turn, `O=C(O)c1sccc1S(=O)(=O)N1CCCCC1CCO` (configuration not stated) returned a melting point of 121 to 123 °C. As for `C=CCn1c(S)nc2sccc2c1=O`, the melting point is 212 to 214 °C. In turn, `Nc1cc(S(N)(=O)=O)ccc1S` came in with a melting point of 220 to 222 °C.

Compound `Cn1cc(C2CC2C(=O)O)cn1` (configuration not stated) gave a melting point of 138 to 140 °C.

As for `O=C(O)c1cnc(-c2ccncc2)s1`, the melting point was 307 to 309 °C. As to `CC(C)(C)C1=NN(c2ccccc2)C(=O)C1=CCl`, the melting point was in the range of 89 to 91 °C. `CCNC(=O)c1ccc(I)cc1`: the melting point was in the range of 148 to 150 °C.

With `CNS(=O)(=O)c1ccc(-c2ccc(Cl)c(Cl)c2)c(C(=O)O)c1`, the melting point fell in the range of 193 to 195 °C. For the compound `OCC1(NCc2ccccc2)CCC1`, the melting point was in the range of 51 to 53 °C. The compound `CC(C)(C)c1ccc(OCCC(=O)O)cc1` gave a melting point of 94 to 96 °C. As for `O=C1CCc2c(F)cccc21`, the figure is 71 to 73 °C; as for `O=C(O)CN1C(=O)COc2cc(Br)ccc21`, 234 to 236 °C; as for `Cc1c(C(=O)O)cc(F)cc1S(=O)(=O)Cl`, 121 to 123 °C. Compound `COc1ccccc1-n1cnnc1S` showed a melting point of 204 to 206 °C.

With `CS(=O)(=O)N1CCC(NC(=O)N2CCC(C(=O)O)CC2)CC1`, the melting point is 197 to 199 °C. `O=C(O)C1CCCN1C(=O)c1cc(Cl)ccc1Cl` (configuration not stated) had a melting point of 194 to 196 °C.

`Cc1c(F)ccc2c1NC(=O)C2=O`: the melting point lay in the range of 139 to 141 °C. For `O=C(NCc1ccccc1)c1ccccc1O`, the melting point fell in the range of 78 to 82 °C.

In the case of `CCOC(=O)c1c(NC(=O)CCl)sc(C(=O)OC(C)(C)C)c1C`, the melting point was 168 to 170 °C.

For the compound `COC(=O)c1cc(=O)c2cc(Cl)ccc2[nH]1`, the melting point was 179 to 181 °C.

In turn, `Cn1ccc2ccnc(Cl)c21` yielded a melting point of 57 to 59 °C. Compound `OCc1ncc(-c2cccc(Cl)c2)o1` displayed a melting point of 101 to 103 °C. `O=C(O)CS(=O)Cc1ccc(Br)cc1` (configuration not stated): the melting point fell in the range of 141 to 143 °C. `Cc1nn2c(S)nnc2nc1O`: the melting point is 305 to 307 °C.

With `Cc1noc(S)n1`, the melting point is 123 to 125 °C. Compound `O=C(O)C(F)(F)c1c[nH]c(=O)[nH]c1=O` returned a melting point of 188 to 190 °C. For the compound `CC(Cl)C(=O)NC(=O)NC1CC1` (configuration not stated), the melting point lay within 88 to 90 °C.

Compound `Cc1nnc(S)n1-c1cccc(N)c1` displayed a melting point of 219 to 221 °C. As for `O=C(O)c1ccc(NC(=O)c2ccccn2)cc1`, the figure is 263 to 265 °C; as for `NS(=O)(=O)Cc1ccc(F)cc1F`, 139 to 141 °C. With `CN1Cc2cc(Br)ccc2NC1=O`, the melting point fell in the range of 209 to 211 °C. Take `COc1ccccc1NS(=O)(=O)c1ccc(O)c(C(=O)O)c1`: the melting point lay in the range of 172 to 174 °C.

Regarding `COc1ccccc1NS(=O)(=O)c1ccc2oc(S)nc2c1`, the melting point lay within 109 to 113 °C. With `Fc1ccc(-n2nc(CCl)c3c2CCC3)cc1`, the melting point fell in the range of 101 to 103 °C.

`CSCCC(NC(=O)c1ccc2ccccc2n1)C(=O)O` (configuration not stated) yielded a melting point of 131 to 133 °C. For the compound `Cc1cc(C)c2c(C)c(C(=O)O)sc2n1`, the melting point was in the range of 278 to 280 °C.

In turn, `O=[N+]([O-])c1cc(S(=O)(=O)Nc2ccccc2)ccc1Cl` had a melting point of 87 to 89 °C.

Compound `CCCN1C(=O)CNc2ccccc21` yielded a melting point of 70 to 72 °C.

Compound `CN(Cc1cc(C#N)ccc1F)C(=O)CCl` returned a melting point of 103 to 105 °C. With `Cc1nc(C(=O)O)c[nH]1`, the melting point lay in the range of 239 to 241 °C. As for `CC(=O)c1sc(NCCCC(=O)O)nc1C`, the figure is 140 to 142 °C; as for `Cc1cc(C(=O)O)c2ccc(Br)cc2n1`, 289 to 291 °C; as for `O=C(O)C1Cc2ccccc2N1` (configuration not stated), 168 to 170 °C. Compound `Brc1ccc(Oc2ncccn2)cc1` yielded a melting point of 114 to 116 °C. As for `COC(=O)C(N)c1ccc2ccccc2c1` (configuration not stated), the figure is 56 to 58 °C; as for `CC(C)(Oc1ccc(F)cc1)C(=O)O`, 68 to 70 °C.

`O=c1ccc(=O)n(-c2ccc([N+](=O)[O-])cc2)[nH]1` came in with a melting point of 308 to 310 °C. The compound `Nc1n[nH]c(C(=O)O)c1-c1ccccc1` had a melting point of 269 to 271 °C. Compound `CC1(C)CN(CC(N)=NO)CCO1` gave a melting point of 75 to 77 °C. The compound `CC1(C)C(=O)NCCN1Cc1ccccc1` yielded a melting point of 212 to 214 °C.

As for `NC(=S)NC1CCOc2ccccc21` (configuration not stated), the melting point fell in the range of 178 to 180 °C.

In turn, `O=C(O)C1CCCn2c1n[nH]c2=O` (configuration not stated) yielded a melting point of 121 to 123 °C. On to `CCOCCOc1c(N)cccc1Cl`, for which the melting point was in the range of 65 to 67 °C.

In the case of `COc1ccc(NC(C)=O)cc1S(N)(=O)=O`, the melting point was in the range of 220 to 222 °C.

Regarding `COC(=O)Nc1cccc(N)c1`, the melting point was in the range of 62 to 64 °C. As to `Nc1cnn(-c2ncccn2)c1`, the melting point is 169 to 171 °C. `Cc1ccsc1-c1nnc(N)[nH]1` showed a melting point of 189 to 191 °C. As to `Cn1nc(-c2ccccc2)c(C=O)c1Cl`, the melting point lay in the range of 61 to 63 °C. On to `CC(NC(=S)NN)C1CC1` (configuration not stated), for which the melting point was in the range of 68 to 70 °C. On to `NC(C(=O)O)(c1ccccc1F)C(F)(F)F` (configuration not stated), for which the melting point was in the range of 113 to 115 °C. Then `Sc1nc2cc(Br)cnc2[nH]1`, with 324 to 326 °C. Turning to `Nc1cc(C2CCCC2)nn1-c1ccccc1`, the melting point is 80 to 82 °C. The compound `O=S(=O)(Cl)c1ccc(N2CCCS2(=O)=O)cc1` registered a melting point of 184 to 186 °C. The compound `C1CCC(C2CCNCC2)CC1` registered a melting point of 73 to 75 °C.

For `Nc1ccc2c(c1)C(=O)NS2(=O)=O`, the melting point lay within 286 to 288 °C. `Cc1nc(CO)oc1C` yielded a melting point of 59 to 61 °C. For the compound `C=CC(=O)NC(N)=O`, the melting point lay within 169 to 171 °C.

`O=C(O)CN1c2cccc3cccc(c23)S1(=O)=O` showed a melting point of 216 to 218 °C.

`Nc1ccc(-c2cn3c(n2)CCCC3)cc1` returned a melting point of 209 to 211 °C. `O=C(O)CSc1nncn1-c1ccccc1`: the melting point lay in the range of 207 to 209 °C. On to `O=C(NCC(F)(F)F)c1ccc(S(=O)(=O)Cl)cc1`, for which the melting point lay in the range of 139 to 141 °C.

Regarding `O=C(O)CCS(=O)(=O)c1ccc2c(c1)OCCO2`, the melting point was in the range of 154 to 156 °C. In turn, `O=C(O)c1cc(S(=O)(=O)Nc2ccccc2F)c[nH]1` had a melting point of 207 to 209 °C.

`CCOc1ccc2c(c1)CC(C(=O)O)CO2` (configuration not stated) had a melting point of 132 to 134 °C. Turning to `CC(=O)c1ccc(S(=O)(=O)CC(=O)O)cc1F`, the melting point is 149 to 151 °C.

In the case of `Cc1cnn(-c2ccc(N)cc2F)c1`, the melting point fell in the range of 57 to 59 °C. Compound `CC(=O)c1ccc(NC(=O)NC(C)C)cc1` gave a melting point of 147 to 149 °C. In turn, `O=c1c2ccccc2nc(S)n1-c1nnc[nH]1` had a melting point of 234 to 236 °C. As for `Cn1cc(Br)cc1C(=O)O`, the figure is 129 to 131 °C; as for `CNC(=O)c1ccc(N)cc1`, 177 to 179 °C; as for `NNC(=O)C1CCC1`, 91 to 93 °C. Take `Cc1cc(C(=O)CCC(=O)O)c(C)s1`: the melting point lay in the range of 105 to 108 °C. As for `Cc1ccc(-c2nc(CC(=O)O)cs2)c(C)c1`, the melting point lay in the range of 104 to 106 °C. `CCn1cc(C(=O)O)cn1` showed a melting point of 144 to 146 °C. Then `O=C1NCCN2CCCCC12` (configuration not stated), with 134 to 136 °C; and `O=C(O)c1ccc(COc2ccc(F)cc2)o1`, with 165 to 167 °C. Turning to `Cc1ccc2c(c1)CCC2=O`, the melting point fell in the range of 69 to 73 °C. Regarding `CN(C)S(=O)(=O)c1cc(C(=O)O)ccc1Cl`, the melting point was in the range of 239 to 241 °C.

Consider `N#Cc1ccc(S(=O)(=O)CCCl)cc1`, for which the melting point was in the range of 116 to 118 °C. As for `CS(=O)(=O)Cc1noc(CCl)n1`, the figure is 73 to 75 °C.

In turn, `CN1CCC(Oc2ccc(C(=O)O)cc2)CC1` came in with a melting point of 218 to 220 °C. `CC(=O)N(c1ccccc1)c1nc(C=O)cs1` came in with a melting point of 150 to 152 °C. In the case of `CCC(C)C(C)S(N)(=O)=O` (configuration not stated), the melting point was 44 to 46 °C. `Nc1cccc(I)c1C(=O)O` showed a melting point of 130 to 132 °C.

In turn, `CCCCOc1ccc(-c2nnc(N)[nH]2)cc1` displayed a melting point of 200 to 202 °C. Then `O=S(=O)(Nc1nc2ccccc2nc1Cl)c1ccc(F)cc1`, with 181 to 183 °C; and `NC(Cc1ccc(Cl)cc1)=NO`, with 96 to 98 °C; and `CCOC(=O)/C(C#N)=C/Nc1ccccc1OCC`, with 141 to 143 °C. In the case of `CC(C)(C)S(=O)(=O)CC(=O)O`, the melting point lay in the range of 89 to 91 °C. With `Cc1nc(-c2ccc(Cl)cc2)cs1`, the melting point was in the range of 119 to 121 °C.

With `COC(=O)c1cc(Oc2ccc(F)cc2)c(F)cc1N`, the melting point lay within 97 to 99 °C.

Compound `CC1CNC(=Nc2cccc3cccnc23)S1` (configuration not stated) gave a melting point of 92 to 94 °C.

The compound `Sc1nnc(Cc2ccccc2)o1` gave a melting point of 124 to 126 °C.

With `CC(C)Sc1ccc(Cl)nn1`, the melting point is 56 to 58 °C. As for `O=C(O)c1cnn(-c2ccc(C(F)(F)F)cn2)c1C(F)(F)F`, the figure is 162 to 164 °C; as for `CCCOc1ccc(C#N)cc1OC`, 90 to 92 °C.
